Measured values: US8580971B2, “Alkyl-analide producing method” (Bayer CropScience AG, priority 2005, dated 2013)
Each block holds one compound with its values, some of them ahead of it.

How the values were obtained:
Pyrenophora teres = Pyrenophora teres test (barley)/protective; type: in vivo; conditions: protective spray, application rate 1000 ppm, evaluated 8 days after inoculation
Procedure: Pyrenophora teres Test (Barley)/Protective To prepare an expedient active compound preparation, 1 part by weight of active compound is mixed with the stated amounts of solvent and emulsifier, and the concentrate is diluted to the desired concentration with water. To test for protective activity, young plants are sprayed with the active compound preparation at the application rate stated. After the spray coating has dried on, the plants are sprayed with a conidial suspension of Pyrenophora teres. The plants remain in an incubation cabinet for 48 hours at 20° C. and 100% relative atmospheric humidity. The plants are then placed into a greenhouse at a temperature of approximately 20° C. and a relative atmospheric humidity of approximately 80%. The test is evaluated 8 days after the inoculation. 0% means an efficacy which corresponds to that of the control, while an efficacy of 100% means that no disease is observed.

[1] = logP determination by HPLC on reversed-phase column (C18), EEC Directive 79/831 Annex V.A8; type: physicochemical; conditions: pH 2.3, HPLC reversed-phase C18, 43° C., 0.1% aqueous phosphoric acid/acetonitrile
Procedure: The logP values stated in the above tables and preparation examples are determined as described in EEC Directive 79/831 Annex V.A8 by means of HPLC (high performance liquid chromatography) on a reversed-phase column (C18). Temperature: 43° C. The determination is effected in the acidic range at pH 2.3 using 0.1% aqueous phosphoric acid and acetonitrile as eluents; linear gradient from 10% acetonitrile to 90% acetonitrile. The calibration is effected with unbranched alkan-2-ones (having 3 to 16 carbon atoms) whose logP values are known (determination of the logP values with reference to the retention times by linear interpolation between two successive alkanones).

Botrytis cinerea = assay: Botrytis test (bean)/protective; type: in vivo; conditions: protective spray, application rate 100 ppm, lesion size evaluated 2 days after inoculation
Procedure: [table] To prepare an expedient active compound preparation, 1 part by weight of active compound is mixed with the stated amounts of solvent and emulsifier, and the concentrate is diluted to the desired concentration with water. To test for protective activity, young plants are sprayed with the active compound preparation at the application rate stated. After the spray coating has dried on, 2 small agar blocks which sustain the growth of Botrytis cinerea are placed on each leaf. The inoculated plants are placed in a darkened chamber at approximately 20° C. and 100% relative atmospheric humidity. 2 days after the inoculation, the size of the lesions on the leaves is evaluated. 0% means an efficacy which corresponds to that of the control, while an efficacy of 100% means that no disease is observed.

[2] = test system: Erysiphe graminis fsp. hordei; assay: Erysiphe test (barley)/protective; type: in vivo; conditions: protective spray, application rate 1000 ppm, evaluated 7 days after inoculation
Procedure: Erysiphe Test (Barley)/Protective To prepare an expedient active compound preparation, 1 part by weight of active compound is mixed with the stated amounts of solvent and emulsifier, and the concentrate is diluted to the desired concentration with water. To test for protective activity, young plants are sprayed with the active compound preparation at the application rate stated. After the spray coating has dried on, the plants are dusted with spores of Erysiphe graminis fsp. hordei. The plants are placed in a greenhouse at a temperature of approximately 20° C. and a relative atmospheric humidity of approximately 80% to favour the development of mildew pustules. The test is evaluated 7 days after the inoculation. 0% means an efficacy which corresponds to that of the control, while an efficacy of 100% means that no disease is observed.

Leptosphaeria nodorum = Leptosphaeria nodorum test (wheat)/protective; type: in vivo; conditions: protective spray, application rate 1000 ppm, evaluated 10 days after inoculation
Procedure: Leptosphaeria nodorum Test (Wheat)/Protective To prepare an expedient active compound preparation, 1 part by weight of active compound is mixed with the stated amounts of solvent and emulsifier, and the concentrate is diluted to the desired concentration with water. To test for protective activity, young plants are sprayed with the active compound preparation at the application rate stated. After the spray coating has dried on, the plants are sprayed with a spore suspension of Leptosphaeria nodorum. The plants remain in an incubation cabinet for 48 hours at 20° C. and 100% relative atmospheric humidity. The plants are then placed into a greenhouse at a temperature of approximately 15° C. and a relative atmospheric humidity of approximately 80%. The test is evaluated 10 days after the inoculation. 0% means an efficacy which corresponds to that of the control, while an efficacy of 100% means that no disease is observed.

SMILES: Cn1cc(C(=O)Nc2cc(F)ccc2-c2ccc(F)c(Cl)c2)c(C(F)F)n1 [drawing 18, reference compound]
Efficacy in % (Pyrenophora teres): 93%

chromatographic logP [1]: 3.26
SMILES: Cn1cc(C(=O)Nc2ccc(F)cc2-c2ccc(Cl)c(F)c2)c(C(F)(F)F)n1 [N-(4′-chloro-5,3′-difluorobiphenyl-2-yl)-1-methyl-3-trifluoromethyl-1H-pyrazole-4-carboxamide]

SMILES: Cn1cc(C(=O)Nc2ccc(F)cc2-c2ccc(Cl)c(F)c2)c(C(F)F)n1 [drawing 19]
Efficacy in % (Pyrenophora teres): 100%

chromatographic logP [1]: 3.05
SMILES: Cc1ccc(-c2cc(F)ccc2NC(=O)c2cn(C)nc2C(F)F)cc1F [N-(5,3′-difluoro-4′-methylbiphenyl-2-yl)-3-difluoromethyl-1-methyl-1H-pyrazole-4-carboxamide]

chromatographic logP [1]: 3.27
SMILES: Cc1ccc(-c2cc(F)ccc2NC(=O)c2cn(C)nc2C(F)(F)F)cc1F [N-(5,3′-difluoro-4′-methylbiphenyl-2-yl)-1-methyl-3-trifluoromethyl-1H-pyrazole-4-carboxamide]

SMILES: Cn1cc(C(=O)Nc2ccc(F)cc2-c2ccc(F)c(Cl)c2)c(C(F)F)n1
Efficacy in % (Botrytis cinerea): 87%

SMILES: Cn1cc(C(=O)Nc2ccc(F)cc2-c2ccc(Cl)c(F)c2)c(C(F)F)n1 [drawing 21]
Efficacy in % [2]: 78%

chromatographic logP [1]: 3.05
SMILES: Cn1cc(C(=O)Nc2ccc(F)cc2-c2ccc(Cl)c(F)c2)c(C(F)F)n1 [Example 1, N-(4′-chloro-3′,5-difluorobiphenyl-2-yl)-3-(difluoromethyl)-1-methyl-1H-pyrazole-4-carboxamide]

SMILES: Cn1cc(C(=O)Nc2cc(F)ccc2-c2ccc(F)c(Cl)c2)c(C(F)F)n1 [drawing 15, reference compound]
Efficacy in % (Botrytis cinerea): 52%

SMILES: Cn1cc(C(=O)Nc2cc(F)ccc2-c2ccc(F)c(Cl)c2)c(C(F)F)n1 [drawing 22, reference compound]
Efficacy in % (Leptosphaeria nodorum): 0%

SMILES: Cn1cc(C(=O)Nc2ccc(F)cc2-c2ccc(Cl)c(F)c2)c(C(F)F)n1 [drawing 17]
Efficacy in % (Botrytis cinerea): 100%

SMILES: Cn1cc(C(=O)Nc2cc(F)ccc2-c2ccc(F)c(Cl)c2)c(C(F)F)n1 [drawing 20, reference compound]
Efficacy in % [2]: 33%

SMILES: Cn1cc(C(=O)Nc2ccc(F)cc2-c2ccc(Cl)c(F)c2)c(C(F)F)n1 [drawing 23]
Efficacy in % (Leptosphaeria nodorum): 84%

chromatographic logP [1]: 2.94
SMILES: Cc1ccc(-c2cc(F)ccc2N)cc1F [Example (III-2), 5,3′-difluoro-4′-methylbiphenyl-2-ylamine]
